Data as given in the NIST ThermoML archive (doi:10.1016/j.jct.2016.08.027).
± gives the expanded uncertainty stated by the source.

Settings: Liquid, Vibrating tube method

SMILES: CCCCCCCCCCCC(=O)OCC [ethyl dodecanoate]
- mass density (283.15 K, 100 kPa): 869.69 ± 0.9 kg/m3
- mass density (283.15 K, 1000 kPa): 870.36 ± 0.9 kg/m3
- mass density (283.15 K, 3000 kPa): 871.92 ± 0.9 kg/m3
- mass density (283.15 K, 5000 kPa): 872.91 ± 0.9 kg/m3
- mass density (283.15 K, 10000 kPa): 876.08 ± 0.91 kg/m3
- mass density (283.15 K, 15000 kPa): 878.96 ± 0.92 kg/m3
- mass density (283.15 K, 20000 kPa): 881.89 ± 0.93 kg/m3
- mass density (283.15 K, 25000 kPa): 884.58 ± 0.94 kg/m3
- mass density (283.15 K, 30000 kPa): 887.29 ± 0.95 kg/m3
- mass density (283.15 K, 35000 kPa): 890.05 ± 0.96 kg/m3
- mass density (283.15 K, 40000 kPa): 892.47 ± 0.96 kg/m3
- mass density (283.15 K, 50000 kPa): 897.22 ± 0.98 kg/m3
- mass density (283.15 K, 60000 kPa): 901.93 ± 0.99 kg/m3
- mass density (293.15 K, 100 kPa): 862.5 ± 0.89 kg/m3
- mass density (293.15 K, 1000 kPa): 863 ± 0.89 kg/m3
- mass density (293.15 K, 3000 kPa): 864.24 ± 0.89 kg/m3
- mass density (293.15 K, 5000 kPa): 865.2 ± 0.9 kg/m3
- mass density (293.15 K, 10000 kPa): 868.58 ± 0.91 kg/m3
- mass density (293.15 K, 15000 kPa): 871.64 ± 0.92 kg/m3
- mass density (293.15 K, 20000 kPa): 874.58 ± 0.92 kg/m3
- mass density (293.15 K, 25000 kPa): 877.55 ± 0.93 kg/m3
- mass density (293.15 K, 30000 kPa): 880.26 ± 0.94 kg/m3
- mass density (293.15 K, 35000 kPa): 882.89 ± 0.95 kg/m3
- mass density (293.15 K, 40000 kPa): 885.52 ± 0.96 kg/m3
- mass density (293.15 K, 50000 kPa): 890.85 ± 0.98 kg/m3
- mass density (293.15 K, 60000 kPa): 895.29 ± 0.99 kg/m3
- mass density (303.15 K, 100 kPa): 854.28 ± 0.88 kg/m3
- mass density (303.15 K, 1000 kPa): 855.02 ± 0.88 kg/m3
- mass density (303.15 K, 3000 kPa): 856.39 ± 0.89 kg/m3
- mass density (303.15 K, 5000 kPa): 857.69 ± 0.89 kg/m3
- mass density (303.15 K, 10000 kPa): 860.98 ± 0.9 kg/m3
- mass density (303.15 K, 15000 kPa): 864.33 ± 0.91 kg/m3
- mass density (303.15 K, 20000 kPa): 867.23 ± 0.92 kg/m3
- mass density (303.15 K, 25000 kPa): 870.25 ± 0.93 kg/m3
- mass density (303.15 K, 30000 kPa): 873.21 ± 0.94 kg/m3
- mass density (303.15 K, 35000 kPa): 876.08 ± 0.95 kg/m3
- mass density (303.15 K, 40000 kPa): 878.71 ± 0.96 kg/m3
- mass density (303.15 K, 50000 kPa): 883.88 ± 0.98 kg/m3
- mass density (303.15 K, 60000 kPa): 888.85 ± 0.99 kg/m3
- mass density (313.15 K, 100 kPa): 846.91 ± 0.87 kg/m3
- mass density (313.15 K, 1000 kPa): 847.32 ± 0.88 kg/m3
- mass density (313.15 K, 3000 kPa): 848.68 ± 0.88 kg/m3
- mass density (313.15 K, 5000 kPa): 850.07 ± 0.88 kg/m3
- mass density (313.15 K, 10000 kPa): 853.51 ± 0.89 kg/m3
- mass density (313.15 K, 15000 kPa): 856.86 ± 0.9 kg/m3
- mass density (313.15 K, 20000 kPa): 860.1 ± 0.91 kg/m3
- mass density (313.15 K, 25000 kPa): 863.29 ± 0.93 kg/m3
- mass density (313.15 K, 30000 kPa): 866.24 ± 0.94 kg/m3
- mass density (313.15 K, 35000 kPa): 869.1 ± 0.95 kg/m3
- mass density (313.15 K, 40000 kPa): 871.83 ± 0.96 kg/m3
- mass density (313.15 K, 50000 kPa): 877.43 ± 0.98 kg/m3
- mass density (313.15 K, 60000 kPa): 882.35 ± 1 kg/m3
- mass density (323.15 K, 100 kPa): 838.9 ± 0.87 kg/m3
- mass density (323.15 K, 1000 kPa): 839.64 ± 0.87 kg/m3
- mass density (323.15 K, 3000 kPa): 841.1 ± 0.87 kg/m3
- mass density (323.15 K, 5000 kPa): 842.59 ± 0.88 kg/m3
- mass density (323.15 K, 10000 kPa): 846.29 ± 0.89 kg/m3
- mass density (323.15 K, 15000 kPa): 849.77 ± 0.9 kg/m3
- mass density (323.15 K, 20000 kPa): 853.3 ± 0.91 kg/m3
- mass density (323.15 K, 25000 kPa): 856.35 ± 0.92 kg/m3
- mass density (323.15 K, 30000 kPa): 859.5 ± 0.93 kg/m3
- mass density (323.15 K, 35000 kPa): 862.45 ± 0.94 kg/m3
- mass density (323.15 K, 40000 kPa): 865.48 ± 0.95 kg/m3
- mass density (323.15 K, 50000 kPa): 871.16 ± 0.98 kg/m3
- mass density (323.15 K, 60000 kPa): 876.11 ± 1 kg/m3
- mass density (333.15 K, 100 kPa): 831.05 ± 0.86 kg/m3
- mass density (333.15 K, 1000 kPa): 831.72 ± 0.86 kg/m3
- mass density (333.15 K, 3000 kPa): 833.53 ± 0.87 kg/m3
- mass density (333.15 K, 5000 kPa): 835.15 ± 0.87 kg/m3
- mass density (333.15 K, 10000 kPa): 838.84 ± 0.88 kg/m3
- mass density (333.15 K, 15000 kPa): 842.47 ± 0.89 kg/m3
- mass density (333.15 K, 20000 kPa): 846.07 ± 0.91 kg/m3
- mass density (333.15 K, 25000 kPa): 849.47 ± 0.92 kg/m3
- mass density (333.15 K, 30000 kPa): 852.73 ± 0.93 kg/m3
- mass density (333.15 K, 35000 kPa): 855.75 ± 0.94 kg/m3
- mass density (333.15 K, 40000 kPa): 859.06 ± 0.95 kg/m3
- mass density (333.15 K, 50000 kPa): 864.9 ± 0.98 kg/m3
- mass density (333.15 K, 60000 kPa): 870.44 ± 1 kg/m3
- mass density (343.15 K, 100 kPa): 823.11 ± 0.85 kg/m3
- mass density (343.15 K, 1000 kPa): 824.13 ± 0.85 kg/m3
- mass density (343.15 K, 3000 kPa): 825.84 ± 0.86 kg/m3
- mass density (343.15 K, 5000 kPa): 827.55 ± 0.86 kg/m3
- mass density (343.15 K, 10000 kPa): 831.53 ± 0.88 kg/m3
- mass density (343.15 K, 15000 kPa): 835.33 ± 0.89 kg/m3
- mass density (343.15 K, 20000 kPa): 839.18 ± 0.9 kg/m3
- mass density (343.15 K, 25000 kPa): 842.57 ± 0.91 kg/m3
- mass density (343.15 K, 30000 kPa): 846.08 ± 0.93 kg/m3
- mass density (343.15 K, 35000 kPa): 849.44 ± 0.94 kg/m3
- mass density (343.15 K, 40000 kPa): 852.46 ± 0.95 kg/m3
- mass density (343.15 K, 50000 kPa): 858.61 ± 0.98 kg/m3
- mass density (343.15 K, 60000 kPa): 864.08 ± 1 kg/m3
- mass density (353.15 K, 100 kPa): 815.47 ± 0.84 kg/m3
- mass density (353.15 K, 1000 kPa): 816.33 ± 0.85 kg/m3
- mass density (353.15 K, 3000 kPa): 818.26 ± 0.85 kg/m3
- mass density (353.15 K, 5000 kPa): 819.99 ± 0.86 kg/m3
- mass density (353.15 K, 10000 kPa): 824.24 ± 0.87 kg/m3
- mass density (353.15 K, 15000 kPa): 828.35 ± 0.88 kg/m3
- mass density (353.15 K, 20000 kPa): 832.01 ± 0.9 kg/m3
- mass density (353.15 K, 25000 kPa): 835.81 ± 0.91 kg/m3
- mass density (353.15 K, 30000 kPa): 839.36 ± 0.92 kg/m3
- mass density (353.15 K, 35000 kPa): 842.72 ± 0.94 kg/m3
- mass density (353.15 K, 40000 kPa): 846.01 ± 0.95 kg/m3
- mass density (353.15 K, 50000 kPa): 852.29 ± 0.98 kg/m3
- mass density (353.15 K, 60000 kPa): 858.27 ± 1 kg/m3
- mass density (363.15 K, 100 kPa): 807.52 ± 0.84 kg/m3
- mass density (363.15 K, 1000 kPa): 808.53 ± 0.84 kg/m3
- mass density (363.15 K, 3000 kPa): 810.45 ± 0.84 kg/m3
- mass density (363.15 K, 5000 kPa): 812.32 ± 0.85 kg/m3
- mass density (363.15 K, 10000 kPa): 816.46 ± 0.86 kg/m3
- mass density (363.15 K, 15000 kPa): 821.01 ± 0.88 kg/m3
- mass density (363.15 K, 20000 kPa): 824.82 ± 0.89 kg/m3
- mass density (363.15 K, 25000 kPa): 828.56 ± 0.91 kg/m3
- mass density (363.15 K, 30000 kPa): 832.36 ± 0.92 kg/m3
- mass density (363.15 K, 35000 kPa): 835.98 ± 0.93 kg/m3
- mass density (363.15 K, 40000 kPa): 839.55 ± 0.95 kg/m3
- mass density (363.15 K, 50000 kPa): 845.99 ± 0.98 kg/m3
- mass density (363.15 K, 60000 kPa): 852.14 ± 1 kg/m3
